According to ChEMBL document CHEMBL1150892, “Kalkipyrone, a toxic gamma-pyrone from an assemblage of the marine cyanobacteria Lyngbya majuscula and Tolypothrix sp” (J Nat Prod, 1998):
Converted amounts (≈) assume the structure as drawn.

Key:
[1] = Toxicity in Artemia salina; format: organism-based; settings: in vivo, read-out: LD50 (the source's name)
[2] = Ichthyotoxicity in gold fish after 1 hr; format: organism-based; settings: carassius auratus, in vivo; read-out: LD50

`COc1oc(C/C=C(\C)C/C=C/C(C)=C/[C@@H](C)O)c(C)c(=O)c1C` [KALKIPYRONE] showed an LC50 [1] of 1 µg/mL (≈ 3.01 µM) and an LC50 at 1 h [2] of 2 µg/mL (≈ 6.02 µM).
